For assay [1], the target named is T1, Dual specificity protein kinase CLK1 (Homo sapiens, UniProt P49759). As to the kind of experiment: Inhibition of human recombinant GST-tagged Clk1 (129 to 484 residues) expressed in Escherichia coli expression system at 100 nM using GRSRSRSRSRSRSRS peptide as substrate incubated for 15 mins in presence of ATP by phosphoimager analysis relative to control.
Target sequence in this assay (P49759 whole entry, looked up, the tested form may be a part): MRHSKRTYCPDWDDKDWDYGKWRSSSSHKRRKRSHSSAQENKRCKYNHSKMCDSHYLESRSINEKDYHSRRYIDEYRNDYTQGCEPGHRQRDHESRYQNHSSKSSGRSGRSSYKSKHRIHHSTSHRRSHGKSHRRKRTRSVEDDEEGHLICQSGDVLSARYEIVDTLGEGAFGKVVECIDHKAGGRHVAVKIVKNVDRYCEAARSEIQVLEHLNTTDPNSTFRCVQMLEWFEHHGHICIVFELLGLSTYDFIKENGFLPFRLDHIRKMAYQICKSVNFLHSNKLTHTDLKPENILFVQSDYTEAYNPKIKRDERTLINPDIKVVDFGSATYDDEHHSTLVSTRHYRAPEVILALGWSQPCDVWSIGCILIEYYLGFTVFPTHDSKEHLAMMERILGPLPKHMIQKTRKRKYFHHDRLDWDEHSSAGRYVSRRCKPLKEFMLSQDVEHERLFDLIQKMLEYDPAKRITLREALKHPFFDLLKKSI
Assay [2] concerns the target T1, Dual specificity protein kinase CLK1. As to the kind of experiment: Inhibition of human recombinant GST-tagged Clk1 (129 to 484 residues) expressed in Escherichia coli expression system using GRSRSRSRSRSRSRS peptide as substrate incubated for 15 mins in presence of ATP by phosphoimager analysis.
Target sequence in this assay (P49759 whole entry, the tested form may be a part): as the sequence (P49759 whole entry, looked up, the tested form may be a part) above
The test system of assay [3] is T-24. In words: Antiproliferative activity against human T24 cells assessed as cell growth inhibition measured after 3 days by MTT assay. Conditions: T-24, 72 h, time 3 day. The format is functional. In general terms: Tetrazolium dyes change colour on reduction, which living cells bring about.

pIC50: −log10 of the molar value.

For `COc1ccc2sc(C(=O)NC(=O)c3ccc(C)cc3OC)cc2c1`, the inhibition in assay [1] came to 50.9%.
For the molecule `COc1ccc2sc(C(=O)NC(=O)c3cccc(OC)c3OC)cc2c1`, the inhibition in assay [1] came out at 27.7%.
Same read-out and setting: with `COc1ccc2sc(C(=O)NC(=O)c3ccc(Cl)cc3OC)cc2c1` the figure was 49.5%.
Regarding `COc1ccc2sc(C(=O)NC(=O)c3ccccc3OC)cc2c1`, in assay [1], the inhibition came out at 86.6%. Also, in assay [2], the pIC50 was 7.46.
Turning to `COc1ccc2sc(C(=O)NC(=O)c3ccc(F)cc3)cc2c1`, in assay [1], the inhibition amounted to 35.7%.
Still for that read-out and setting: with `COc1cccc(C(=O)NC(=O)c2cc3cc(OC)ccc3s2)c1` the figure was 36.5%.
Consider `COc1ccc2sc(C(=O)NC(=O)c3cc(F)ccc3F)cc2c1`, for which the inhibition in assay [1] is 65.6%. The pIC50 in assay [2] is 7.15.
For `COc1ccc2sc(C(=O)NC(=O)c3cc(F)cc(F)c3)cc2c1`, in assay [1], the inhibition came out at 54.6%.
Same read-out and setting: under `COc1ccc2sc(C(=O)NC(=O)c3cc(C(F)(F)F)ccc3OC)cc2c1` stands 9.6%; under `COc1ccc2sc(C(=O)NC(=O)c3ccccc3C)cc2c1`, 6.5%.
In the case of `COc1cc(F)c(C(=O)NC(=O)c2cc3cc(OC)ccc3s2)c(F)c1`, the inhibition in assay [1] was 10.6%.
Regarding `COc1ccc2sc(C(=O)NC(=O)c3cccc(Cl)n3)cc2c1`, the inhibition in assay [1] was determined as 33%.
Turning to `COc1ccc(F)c(C(=O)NC(=O)c2cc3cc(OC)ccc3s2)c1`, the inhibition in assay [1] was 7.8%.
For `COc1ccc2sc(C(=O)NC(=O)c3cc(C)ccc3OC)cc2c1`, the inhibition in assay [1] worked out at 42.7%.
Still for that read-out and setting: with `COc1ccc2sc(C(=O)NC(=O)c3cccc4c3OCCO4)cc2c1` the figure was 9.2%; with `COc1ccc2sc(C(=O)N(C)C(=O)c3ccccc3OC)cc2c1`, 15.7%.
Still for that read-out and setting: with `COc1ccc2sc(C(=O)NC(=O)c3cccc4c3OC(F)(F)O4)cc2c1` the figure was 43.1%; with `COc1ccc(OC)c(C(=O)NC(=O)c2cc3cc(OC)ccc3s2)c1`, 30.8%.
Same read-out and setting: with `COc1ccc2sc(C(=O)NC(=O)c3ccc(OC)c(F)c3)cc2c1` the figure was 5.9%; with `COc1ccc2sc(C(=O)NC(=O)c3ccc(OC)c(OC)c3)cc2c1`, 12.4%; with `COc1ccc2sc(C(=O)NC(=O)c3c(OC)cccc3OC)cc2c1`, 12.2%.
`COc1ccc2sc(C(=O)NC(=O)c3cccc(Cl)c3OC)cc2c1`: the inhibition in assay [1] was 2.2%.
Regarding `COc1ccc2sc(C(=O)NC(=O)c3cc(C)cc(F)c3)cc2c1`, in assay [1], the inhibition amounted to 51.8%.
For the molecule `COc1ccc2sc(C(=O)NC(=O)c3ccccc3OC(F)(F)F)cc2c1`, the inhibition in assay [1] is 64.4%. Moreover, the pIC50 in assay [2] is 7.31. In addition, the GI50 in assay [3] worked out at 1100 nM.
Consider `COc1ccc2sc(C(=O)NC(=O)c3ccccc3Cl)cc2c1`, for which the inhibition in assay [1] was 61.4%. The pIC50 in assay [2] was 7.04.
For `COc1ccc(C(=O)NC(=O)c2cc3cc(OC)ccc3s2)c(OC)c1`, in assay [1], the inhibition came to 42.2%. For the same molecule, the GI50 in assay [3] was above 15000 nM.
As for `COc1ccc2sc(C(=O)NC(=O)c3cc(Cl)cnc3OC)cc2c1`, the inhibition in assay [1] amounted to 44.9%.
For the molecule `COc1ccc2sc(C(=O)NC(=O)c3cccc(F)c3)cc2c1`, the inhibition in assay [1] amounted to 38.5%.
Same read-out and setting: with `COc1ccc2sc(C(=O)NC(=O)c3ccccc3)cc2c1` the figure was 56.1%.
On the same count and under the same terms, under `COc1ccc2sc(C(=O)NC(=O)c3ccno3)cc2c1` stands 12.1%.
On to `COc1ccc2sc(C(=O)NC(=O)c3cc(C)on3)cc2c1`, for which the inhibition in assay [1] amounted to 7.3%.
Same read-out and setting: under `COc1ccc2sc(C(=O)NC(=O)c3ccccc3F)cc2c1` stands 16.5%; under `COc1ccc2sc(C(=O)NC(=O)c3cccc(OC)n3)cc2c1`, 42.3%.
`CCOc1ccccc1C(=O)NC(=O)c1cc2cc(OC)ccc2s1`: the inhibition in assay [1] was found to be 63.3%. In assay [2], the pIC50 was 7.10. Moreover, the GI50 in assay [3] was below 100 nM.
Consider `CCCOc1ccccc1C(=O)NC(=O)c1cc2cc(OC)ccc2s1`, for which the inhibition in assay [1] amounted to 62.3%. Moreover, the pIC50 in assay [2] is 7.05.

One may read the inhibition as the drop in the measured response relative to a control, in per cent. The term pIC50 denotes the negative decadic logarithm of the IC50, by convention in mol/L. In general, GI50 refers to the concentration giving 50% growth inhibition.

The values above are taken from ChEMBL document CHEMBL5113421, “Development of novel conformationally restricted selective Clk1/4 inhibitors through creating an intramolecular hydrogen bond involving an imide linker” (Eur J Med Chem, 2022).
